Measurements from PMC3071374, “High Throughput Screens Yield Small Molecule Inhibitors of Leishmania CRK3:CYC6 Cyclin-Dependent Kinase” (PLoS Neglected Tropical Diseases, 2011).

What was measured:
[1] = biological target: human CDK2:CycA (Homo sapiens, UniProt P24941); assay: Mammalian protein kinase assay / counter screen, CDK2:CYCA; assay type: biochemical; settings: BioFocus SFK48 library, counter screen
Protocol: Leishmania CRK3:CYC6 protein kinase assays were performed in 96-well microtiter plates in a final volume of 25 µl. Each assay point contained 7.5 ng of co-expressed histidine-tagged CRK3:CYC6 protein kinase complex (hereafter referred to as CRK3:CYC6) diluted in enzyme dilution buffer (EDB) (20 mM Tris-HCl pH 7.2, 0.5 mg ml^−1 BSA, 2.5% glycerol and 0.006% Brij-35). Assays were performed using the assay development buffer (ADB) (20 mM MOPS, pH 7.0, 25 mM β-glycerophosphate, 5 mM EGTA, 1 mM NaVO3, 1 mM DTT and 15 mM MgCl2) supplemented with 100 µM ATP, 0.5 µCi of γ-^32P ATP per reaction and histone H1 as a substrate used at 0.4 mg ml^−1. Two and three-fold titrations were set up to determine the concentration of enzyme to be used per assay point (7.5 ng) and to determine the concentrations of selected inhibitors required for 50% inhibition of Leishmania CRK3:CYC6 protein kinase activity (IC50 values), respectively. For IC50 determinations, assay mixes contained DMSO to a final concentration of 2%. Mammalian protein kinase assays were carried out according to the assay protocols developed at Cyclacel. Assays were carried out for 30 minutes at 30°C before stopping the reaction by the addition of an equal volume (25 µl) of 75 mM orthophosphoric acid. Samples were spotted onto a p81 cellulose filterplate (Nunc) and a vacuum applied. Wells were washed 3×200 µl with 75 mM phosphoric acid and the bottom of the plate sealed. 50 µl of Microscint 40 (Perkin Elmer) was added per well before incorporation of radioactivity was determined on a Topcount microplate scintillation counter.

[2] = biological target: Leishmania CRK3:CYC6 (Leishmania major, UniProt O96526); assay: IMAP fluorescence polarisation high throughput screen of CRK3:CYC6; assay type: biochemical, L. major; design: made in house; host or cells: E. coli BL21 (DE3) pLys-S; settings: BioFocus SFK48 library, primary concentration 20 µM
Sequence of Leishmania CRK3:CYC6 (O96526 entry or part of it): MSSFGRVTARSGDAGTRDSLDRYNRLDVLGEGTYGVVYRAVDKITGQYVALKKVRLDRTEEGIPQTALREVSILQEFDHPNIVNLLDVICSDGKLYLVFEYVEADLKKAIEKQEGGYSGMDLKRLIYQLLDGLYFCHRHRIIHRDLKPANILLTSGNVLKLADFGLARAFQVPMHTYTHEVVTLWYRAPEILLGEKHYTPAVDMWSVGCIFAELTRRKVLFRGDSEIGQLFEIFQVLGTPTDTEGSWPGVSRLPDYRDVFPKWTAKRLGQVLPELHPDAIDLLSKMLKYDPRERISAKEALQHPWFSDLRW
Protocol: (§1) Protein kinase assays were performed in 384-well non-treated black plates (Nunc) in a final volume of 20 µl. Each assay point contained 1.25 ng of co-expressed Leishmania CRK3:CYC6 protein kinase complex. […] The enzyme complex, peptide and ATP were made up in the IMAP complete reaction buffer (CRB) (10 mM Tris-HCl, pH 7.2, 10 mM MgCl2, 0.05% NaN3, 0.01% Tween-20 and 1 mM DTT). Assays were carried out for 1 hour 20 minutes at room temperature and the reaction stopped by the addition of 50 µl of the IMAP progressive binding reagent (Proprietary buffer from Molecular Devices plus tri-valent metal-containing nanoparticles). The assay was left to proceed for a further 1 hour 20 minutes at room temperature and the fluorescence polarization determined by a Perkin Elmer Fusion microplate reader, with excitation at 485 nm and emission at 535 nm.

[3] = system: WT promastigote L. major; assay: L. major promastigote growth inhibition assay (resazurin); assay type: cell-based; settings: BioFocus SFK48 HTS hits; 5 days at 25°C; read-out: IC50 against WT promastigote L. major
Protocol: L. major wild type promastigotes (Friedlin strain: WHO designation MHOM/JL/81/Friedlin) were grown at 25°C in HOMEM medium (Invitrogen cat no. 041-94699111) supplemented with 10% (v/v) heat inactivated foetal calf serum (HIFCS) and 1% (v/v) penicillin/streptomycin antibiotics.
CRK3 inhibitors were diluted into HOMEM medium supplemented with 10% HIFCS at twice the final screening concentration. Five-fold or ten-fold serial dilutions were carried out into HOMEM medium supplemented with 10% HIFCS. 100 µl of each drug concentration were added to a 96 well plate in duplicate. 100 µl of five-fold or ten-fold serial dilutions of 1 mM Pentamidine (Sigma) and an equivalent volume of 100% DMSO were included as positive and negative controls, in duplicate, respectively. L. major promastigote cells were diluted to a cell density of 2×10^6 cells ml^−1 in HOMEM media supplemented with 10% HIFCS and 100 µl added to all wells in 96 well plates. Plates were sealed with parafilm and incubated for 5 days at 25°C. After 5 days, 20 µl of filter sterile resazurin solution (12.5 mg resazurin salt in 100 ml PBS) (Sigma) was added to each of the wells and the plate incubated for a further 24 hours at 25°C. Fluorescence was measured using an Envision plate reader (Perkin Elmer) at 540 nm excitation wavelength and 590 nm emission wavelength.

[4] = system: CRK3:CYC6; settings: peptide as substrate of CRK3:CYC6
Sequence of CRK3:CYC6 (O96526 entry or part of it): as above
Protocol: as §1
The IMAP fluorescent polarisation assay was selected for the high throughput screen. First a substrate finder assay was carried out with 61 potential serine/threonine protein kinase substrates. […] In order to establish the quantity of CRK3:CYC6 to use in the IMAP HTS assays, a two-fold enzyme titration was carried out (Figure S2 in Supporting Information Text S1).

Row | Molecule | activity towards CDK2:CycA in the primary screen [1] | activity towards CRK3:CYC6 in the primary screen [2] | IC50 [3] | ΔmP signal [4]
1 | NC(c1csc(NC(=O)Nc2cccc(Cl)c2)n1)c1ccccc1Cl (centres unmarked) [Compound 43] | active | active | 12.5 µM | –
2 | CN(C)Cc1csc(NC(=O)Nc2ccccc2Oc2ccccc2)n1 [Compound 44] | active | active | 14.4 µM | –
3 | COc1ccc(CC(N)c2csc(NC(=O)Nc3cc(OC)ccc3OC)n2)cc1 (centres unmarked) [Compound 45] | inactive | inactive | 6.8 µM | –
4 | COc1ccc(CNC(=O)Nc2nc(C(N)CCc3ccccc3)cs2)cc1 (centres unmarked) [Compound 46] | inactive | inactive | 7.8 µM | –
5 | FLAKSFGSPNRAYKK [CDK7 derived] | – | – | – | 180 mP
6 | GGGPATPKKAKKL [Histone H1 derived] | – | – | – | 295 mP
7 | GGGRSPGRRRRK [Generic Sequence] | – | – | – | 310 mP
8 | PKTPKKAKKL [Histone H1 derived (aa 9–18)] | – | – | – | 280 mP
9 | RRRFRPASPLRGPPK [DYRKtide] | – | – | – | 190 mP
